{"source": "paper PMC6688997", "about": "(Nature Communications, 2019)", "key": {"p38δ": {"target": "p38δ (Homo sapiens, UniProt O15264)", "sequence (O15264 whole entry)": "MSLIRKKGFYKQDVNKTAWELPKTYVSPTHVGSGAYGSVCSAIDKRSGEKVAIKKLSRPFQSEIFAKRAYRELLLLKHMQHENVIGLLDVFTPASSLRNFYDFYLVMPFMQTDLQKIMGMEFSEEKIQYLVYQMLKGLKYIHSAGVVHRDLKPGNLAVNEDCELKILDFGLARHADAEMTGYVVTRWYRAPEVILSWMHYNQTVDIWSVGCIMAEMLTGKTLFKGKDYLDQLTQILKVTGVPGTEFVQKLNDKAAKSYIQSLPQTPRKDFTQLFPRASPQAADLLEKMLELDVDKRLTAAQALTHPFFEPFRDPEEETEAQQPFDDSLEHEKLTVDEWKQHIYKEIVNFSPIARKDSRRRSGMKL", "experiment": "Kinase assay, ATP Km", "assay_type": "biochemical"}, "TRKC (NTRK3)": {"target": "T1, TRKC (NTRK3) (Homo sapiens, UniProt Q16288)", "T1 construct": "purchased Carna Biosciences, Inc. (Kobe, Japan); assay run by the vendor", "T1 sequence (Q16288 32-839)": "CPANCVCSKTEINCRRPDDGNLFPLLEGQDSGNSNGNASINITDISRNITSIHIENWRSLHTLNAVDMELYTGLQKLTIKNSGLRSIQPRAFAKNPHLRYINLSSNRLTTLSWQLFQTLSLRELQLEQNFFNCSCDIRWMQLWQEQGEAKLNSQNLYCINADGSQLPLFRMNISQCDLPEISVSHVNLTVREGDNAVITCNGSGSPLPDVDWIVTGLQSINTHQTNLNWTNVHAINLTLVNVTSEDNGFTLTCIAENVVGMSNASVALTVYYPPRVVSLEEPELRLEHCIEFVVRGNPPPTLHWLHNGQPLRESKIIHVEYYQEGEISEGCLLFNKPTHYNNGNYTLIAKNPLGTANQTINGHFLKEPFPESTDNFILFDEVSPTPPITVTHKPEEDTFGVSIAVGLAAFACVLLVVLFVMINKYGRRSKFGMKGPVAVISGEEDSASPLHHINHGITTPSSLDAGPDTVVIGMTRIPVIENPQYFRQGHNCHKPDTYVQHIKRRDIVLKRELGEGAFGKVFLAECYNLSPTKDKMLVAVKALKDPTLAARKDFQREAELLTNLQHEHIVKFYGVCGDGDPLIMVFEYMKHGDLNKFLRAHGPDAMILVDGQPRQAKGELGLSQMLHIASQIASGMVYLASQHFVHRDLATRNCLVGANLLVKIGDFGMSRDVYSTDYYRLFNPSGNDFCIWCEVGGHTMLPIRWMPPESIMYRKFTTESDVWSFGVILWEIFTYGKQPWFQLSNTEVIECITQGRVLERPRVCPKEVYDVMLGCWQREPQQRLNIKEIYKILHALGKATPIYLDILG", "experiment": "Kinase assay, ATP Km", "assay_type": "biochemical", "settings": "for IC50: ATP: Km"}, "MAPKAPK3": {"target": "T2, MAPKAPK3 (Homo sapiens, UniProt Q16644)", "T2 construct": "purchased Carna Biosciences", "experiment": "Kinase assay, ATP Km", "assay_type": "biochemical"}, "CK1γ2": {"target": "CK1γ2 (Homo sapiens, UniProt P78368)", "sequence (P78368 whole entry)": "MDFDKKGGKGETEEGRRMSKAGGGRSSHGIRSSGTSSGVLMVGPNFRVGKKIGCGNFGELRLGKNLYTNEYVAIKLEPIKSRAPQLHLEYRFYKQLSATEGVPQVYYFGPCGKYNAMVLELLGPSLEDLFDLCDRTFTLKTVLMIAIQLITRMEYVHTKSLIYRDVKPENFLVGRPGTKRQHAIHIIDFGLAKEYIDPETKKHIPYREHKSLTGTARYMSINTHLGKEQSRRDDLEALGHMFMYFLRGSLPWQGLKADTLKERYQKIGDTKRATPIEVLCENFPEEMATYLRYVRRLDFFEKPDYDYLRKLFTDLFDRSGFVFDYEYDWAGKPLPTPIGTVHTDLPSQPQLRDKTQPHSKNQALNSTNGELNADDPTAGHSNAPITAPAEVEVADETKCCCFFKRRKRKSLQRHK", "experiment": "Kinase assay, ATP Km", "assay_type": "biochemical"}, "PRKX": {"target": "T3, PRKX (Homo sapiens, UniProt P51817)", "T3 construct": "purchased Carna Biosciences", "experiment": "Kinase assay, ATP Km", "assay_type": "biochemical"}, "TSSK1": {"target": "T4, TSSK1 (Homo sapiens, UniProt Q9BXA7)", "T4 construct": "purchased Carna Biosciences", "experiment": "Kinase assay, ATP Km", "assay_type": "biochemical"}, "PAK6": {"target": "PAK6 (Homo sapiens, UniProt Q9NQU5)", "sequence (Q9NQU5 whole entry)": "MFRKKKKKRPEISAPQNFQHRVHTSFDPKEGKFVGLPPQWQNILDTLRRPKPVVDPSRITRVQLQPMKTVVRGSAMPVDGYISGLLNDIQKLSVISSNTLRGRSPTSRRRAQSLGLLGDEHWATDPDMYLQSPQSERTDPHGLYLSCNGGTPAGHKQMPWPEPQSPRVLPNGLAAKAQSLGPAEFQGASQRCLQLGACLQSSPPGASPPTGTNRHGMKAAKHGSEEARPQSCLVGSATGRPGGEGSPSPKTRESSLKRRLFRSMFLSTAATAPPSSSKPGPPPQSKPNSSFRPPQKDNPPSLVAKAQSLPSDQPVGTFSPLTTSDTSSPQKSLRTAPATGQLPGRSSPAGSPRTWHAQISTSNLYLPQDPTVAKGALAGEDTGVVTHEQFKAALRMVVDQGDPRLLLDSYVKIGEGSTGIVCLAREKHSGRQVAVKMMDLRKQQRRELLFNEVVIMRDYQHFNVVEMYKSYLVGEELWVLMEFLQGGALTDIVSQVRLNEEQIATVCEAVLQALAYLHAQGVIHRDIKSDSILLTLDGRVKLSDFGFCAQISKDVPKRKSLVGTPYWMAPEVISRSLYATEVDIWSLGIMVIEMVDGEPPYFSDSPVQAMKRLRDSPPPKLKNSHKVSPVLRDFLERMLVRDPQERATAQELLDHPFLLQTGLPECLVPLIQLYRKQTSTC", "experiment": "Kinase assay, ATP Km", "assay_type": "biochemical"}, "DDR2": {"target": "T5, DDR2 (Homo sapiens, UniProt Q16832)", "T5 sequence (Q16832 22-855)": "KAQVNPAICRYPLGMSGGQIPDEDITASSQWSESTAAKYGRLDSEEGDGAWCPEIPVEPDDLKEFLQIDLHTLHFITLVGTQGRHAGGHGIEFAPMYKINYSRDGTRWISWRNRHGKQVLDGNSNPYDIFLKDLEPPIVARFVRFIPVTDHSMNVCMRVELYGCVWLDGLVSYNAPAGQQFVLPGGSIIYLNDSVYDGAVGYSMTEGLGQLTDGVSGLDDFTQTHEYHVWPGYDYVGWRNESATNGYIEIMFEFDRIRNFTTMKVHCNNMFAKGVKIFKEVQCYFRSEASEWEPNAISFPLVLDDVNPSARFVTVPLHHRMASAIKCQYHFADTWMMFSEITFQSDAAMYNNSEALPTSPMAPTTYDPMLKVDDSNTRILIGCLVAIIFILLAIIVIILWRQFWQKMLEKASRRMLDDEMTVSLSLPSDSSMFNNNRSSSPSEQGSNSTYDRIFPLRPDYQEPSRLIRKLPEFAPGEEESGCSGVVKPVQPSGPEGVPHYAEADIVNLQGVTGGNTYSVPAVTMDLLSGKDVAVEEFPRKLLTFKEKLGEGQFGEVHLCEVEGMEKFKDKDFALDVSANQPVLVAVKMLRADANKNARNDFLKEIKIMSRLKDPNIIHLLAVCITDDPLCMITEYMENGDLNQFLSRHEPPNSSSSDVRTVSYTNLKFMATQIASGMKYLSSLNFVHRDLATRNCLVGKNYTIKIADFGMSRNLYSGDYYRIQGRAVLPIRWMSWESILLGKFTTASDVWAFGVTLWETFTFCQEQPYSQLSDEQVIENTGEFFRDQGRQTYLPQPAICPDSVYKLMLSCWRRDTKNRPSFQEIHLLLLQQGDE", "experiment": "Kinase assay, 1 mM ATP", "assay_type": "biochemical"}, "EPHA3": {"target": "EPHA3 (Homo sapiens, UniProt P29320)", "sequence (P29320 21-983)": "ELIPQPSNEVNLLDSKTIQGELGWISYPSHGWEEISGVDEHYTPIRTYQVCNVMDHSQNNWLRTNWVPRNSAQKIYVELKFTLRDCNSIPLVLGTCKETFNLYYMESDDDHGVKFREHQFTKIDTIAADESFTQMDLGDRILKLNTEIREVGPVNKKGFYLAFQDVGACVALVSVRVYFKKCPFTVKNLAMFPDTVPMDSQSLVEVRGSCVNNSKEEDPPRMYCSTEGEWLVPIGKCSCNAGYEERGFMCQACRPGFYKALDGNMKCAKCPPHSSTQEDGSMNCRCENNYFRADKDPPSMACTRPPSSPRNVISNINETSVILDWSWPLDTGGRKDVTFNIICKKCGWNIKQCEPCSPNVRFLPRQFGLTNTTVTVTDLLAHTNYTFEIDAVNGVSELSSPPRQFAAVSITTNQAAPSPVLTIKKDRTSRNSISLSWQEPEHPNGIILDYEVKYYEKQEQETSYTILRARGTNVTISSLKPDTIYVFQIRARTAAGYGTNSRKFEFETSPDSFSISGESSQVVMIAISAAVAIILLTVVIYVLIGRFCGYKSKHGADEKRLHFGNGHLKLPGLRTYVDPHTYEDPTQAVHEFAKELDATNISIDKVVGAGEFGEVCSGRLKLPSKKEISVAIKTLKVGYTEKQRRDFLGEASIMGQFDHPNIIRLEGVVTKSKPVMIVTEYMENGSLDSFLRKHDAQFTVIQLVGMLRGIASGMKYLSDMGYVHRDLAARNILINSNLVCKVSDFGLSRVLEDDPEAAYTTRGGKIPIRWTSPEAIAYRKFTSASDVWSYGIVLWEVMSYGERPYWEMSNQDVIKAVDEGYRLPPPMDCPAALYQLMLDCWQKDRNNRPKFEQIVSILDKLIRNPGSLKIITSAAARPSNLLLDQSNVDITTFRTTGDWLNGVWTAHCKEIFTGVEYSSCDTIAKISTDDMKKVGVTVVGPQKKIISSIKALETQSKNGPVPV", "experiment": "Kinase assay, ATP Km", "assay_type": "biochemical"}, "p38β": {"target": "p38β (Homo sapiens, UniProt Q15759)", "sequence (Q15759 whole entry)": "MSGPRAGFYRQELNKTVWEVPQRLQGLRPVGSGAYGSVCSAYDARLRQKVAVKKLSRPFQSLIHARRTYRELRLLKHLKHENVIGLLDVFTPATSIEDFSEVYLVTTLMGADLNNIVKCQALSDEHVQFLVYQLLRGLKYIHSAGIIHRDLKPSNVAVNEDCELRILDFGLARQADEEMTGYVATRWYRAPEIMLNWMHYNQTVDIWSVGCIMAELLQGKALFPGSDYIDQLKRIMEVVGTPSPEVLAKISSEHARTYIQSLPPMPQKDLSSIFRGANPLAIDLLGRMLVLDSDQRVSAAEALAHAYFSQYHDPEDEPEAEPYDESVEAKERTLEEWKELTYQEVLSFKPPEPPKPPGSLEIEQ", "experiment": "Kinase assay, ATP Km", "assay_type": "biochemical"}, "[1]": {"tested_on": "HCC78xe3-SLC34A2-ROS1-WT xenograft", "assay_type": "in vivo, mouse", "settings": "for Mean tumor volume of group (mice 25-30): 100mg/kg, BALB/c-nu, left block; for Tumor volume LWW/2: DS6051b 100mg/kg, in mm³"}, "PBK": {"target": "T6, PBK (Homo sapiens, UniProt Q96KB5)", "T6 construct": "purchased Carna Biosciences", "experiment": "Kinase assay, ATP Km", "assay_type": "biochemical"}, "HIPK2": {"target": "T7, HIPK2 (Homo sapiens, UniProt Q9H2X6)", "T7 construct": "purchased Carna Biosciences", "experiment": "Kinase assay, ATP Km", "assay_type": "biochemical"}, "SLK": {"target": "T8, SLK (Homo sapiens, UniProt Q9H2G2)", "T8 construct": "purchased Carna Biosciences", "experiment": "Kinase assay, ATP Km", "assay_type": "biochemical"}, "KM12 cells (TPM3-NTRK1)": {"tested_on": "KM12 cells (TPM3-NTRK1)", "experiment": "CellTiter-Glo cell viability assay", "assay_type": "cell-based", "settings": "Homo sapiens, KM12, 72 h"}, "[2]": {"settings": "cited from earlier work"}, "DYRK1A": {"target": "DYRK1A (Homo sapiens, UniProt Q13627)", "experiment": "Kinase assay, ATP Km", "assay_type": "biochemical"}, "NTRK3": {"target": "T9, NTRK3 (Homo sapiens, UniProt Q16288)", "T9 construct": "purchased Carna Biosciences, Inc. (Kobe, Japan)", "T9 sequence (Q16288 32-839)": "as the sequence (Q16288 32-839) above", "experiment": "Kinase assay, 1 mM ATP", "assay_type": "biochemical"}, "CLK3": {"target": "T10, CLK3 (Homo sapiens, UniProt P49761)", "T10 construct": "purchased Carna Biosciences", "experiment": "Kinase assay, ATP Km", "assay_type": "biochemical"}, "WNK2": {"target": "T11, WNK2 (Homo sapiens, UniProt Q9Y3S1)", "T11 construct": "purchased Carna Biosciences", "experiment": "Kinase assay, ATP Km", "assay_type": "biochemical"}, "HIPK1": {"target": "T12, HIPK1 (Homo sapiens, UniProt Q86Z02)", "T12 construct": "purchased Carna Biosciences", "experiment": "Kinase assay, ATP Km", "assay_type": "biochemical"}, "[3]": {"tested_on": "EML4-ALK L1196M induced Ba/F3 cells", "experiment": "CellTiter-Glo cell viability assay", "assay_type": "cell-based, murine", "settings": "Mus musculus, BaF3, 72 h; read-out: IC50"}, "[4]": {"tested_on": "EML4-ALK I1171N induced Ba/F3 cells", "experiment": "CellTiter-Glo cell viability assay", "assay_type": "cell-based, murine", "settings": "Mus musculus, BaF3, 72 h; read-out: IC50"}, "GSK3α": {"target": "GSK3α (Homo sapiens, UniProt P49840)", "sequence (P49840 whole entry)": "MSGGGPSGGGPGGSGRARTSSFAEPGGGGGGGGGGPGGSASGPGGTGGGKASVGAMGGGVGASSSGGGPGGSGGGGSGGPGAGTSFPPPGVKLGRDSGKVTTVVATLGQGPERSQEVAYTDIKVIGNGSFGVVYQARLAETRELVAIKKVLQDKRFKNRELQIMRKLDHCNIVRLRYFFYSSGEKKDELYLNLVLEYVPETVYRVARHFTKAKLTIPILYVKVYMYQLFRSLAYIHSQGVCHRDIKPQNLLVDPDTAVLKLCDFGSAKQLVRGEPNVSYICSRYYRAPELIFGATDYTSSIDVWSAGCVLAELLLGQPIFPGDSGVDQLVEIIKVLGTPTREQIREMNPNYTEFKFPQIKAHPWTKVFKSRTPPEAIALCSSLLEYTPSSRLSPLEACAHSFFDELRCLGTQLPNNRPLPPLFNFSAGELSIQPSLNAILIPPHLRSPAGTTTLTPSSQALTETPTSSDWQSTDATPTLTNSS", "experiment": "Kinase assay, ATP Km", "assay_type": "biochemical"}, "SYK": {"target": "SYK (Homo sapiens, UniProt P43405)", "experiment": "Kinase assay, ATP Km", "assay_type": "biochemical"}}, "note": "Where “and” joins values, the source holds several entries; their conditions need not be identical. Identical values can stand only once. Like-named read-outs stand apart in the source and are kept apart here.", "data": [{"smiles": "C[C@@H](N)COc1ccc(-c2cnc3ccc(N[C@H](C)c4cccc(F)c4)nn23)cc1.O=C(O)CCCCC(=O)O", "note": "[DS-6051b]", "values": [{"measurement": "inhibition at 0.04 µM", "setting": "p38δ", "result": 6.2, "unit": "%"}, {"measurement": "inhibition at 0.04 µM", "setting": "TRKC (NTRK3)", "result": 103, "unit": "%"}, {"measurement": "IC50", "setting": "TRKC (NTRK3)", "result": "sub-nanomolar"}, {"measurement": "IC50", "setting": "TRKC (NTRK3); read-out: IC50", "result": 0.00098, "unit": "µM"}, {"measurement": "inhibition at 0.04 µM", "setting": "MAPKAPK3", "result": -6.1, "unit": "%"}, {"measurement": "inhibition at 0.04 µM", "setting": "CK1γ2", "result": -0.8, "unit": "%"}, {"measurement": "inhibition at 0.04 µM", "setting": "PRKX", "result": 1.7, "unit": "%"}, {"measurement": "inhibition at 0.04 µM", "setting": "TSSK1", "result": 4.1, "unit": "%"}, {"measurement": "inhibition at 0.04 µM", "setting": "PAK6", "result": 7.1, "unit": "%"}, {"measurement": "inhibition at 0.2 µM", "setting": "DDR2; 0.2μM, 1 mM ATP", "result": 43.5, "unit": "%"}, {"measurement": "IC50", "setting": "DDR2; ATP: 1 mM", "result": 0.299, "unit": "µM"}, {"measurement": "inhibition at 0.04 µM", "setting": "EPHA3", "result": 18.2, "unit": "%"}, {"measurement": "inhibition at 0.04 µM", "setting": "p38β", "result": 1.4, "unit": "%"}, {"measurement": "Mean tumor volume of group (mice 25-30)", "setting": "[1]; day 3, HCC78 xenograft", "result": 65.4, "unit": "mm³"}, {"measurement": "Mean tumor volume of group (mice 25-30)", "setting": "[1]; day 6, HCC78 xenograft", "result": 42.9, "unit": "mm³"}, {"measurement": "Mean tumor volume of group (mice 25-30)", "setting": "[1]; day 9, HCC78 xenograft", "result": 22.4, "unit": "mm³"}, {"measurement": "Mean tumor volume of group (mice 25-30)", "setting": "[1]; day 14, HCC78 xenograft", "result": 16, "unit": "mm³"}, {"measurement": "Mean tumor volume of group (mice 25-30)", "setting": "[1]; day 17, HCC78 xenograft", "result": 21.3, "unit": "mm³"}, {"measurement": "Mean tumor volume of group (mice 25-30)", "setting": "[1]; day 21, HCC78 xenograft", "result": 15.1, "unit": "mm³"}, {"measurement": "Mean tumor volume of group (mice 25-30)", "setting": "[1]; day 25, HCC78 xenograft", "result": 9.1, "unit": "mm³"}, {"measurement": "Mean tumor volume of group (mice 25-30)", "setting": "[1]; day 28, HCC78 xenograft", "result": 5.8, "unit": "mm³"}, {"measurement": "Mean tumor volume of group (mice 25-30)", "setting": "[1]; day 31, HCC78 xenograft", "result": 8.2, "unit": "mm³"}, {"measurement": "Mean tumor volume of group (mice 25-30)", "setting": "[1]; day 35, HCC78 xenograft", "result": 6.9, "unit": "mm³"}, {"measurement": "Mean tumor volume of group (mice 25-30)", "setting": "[1]; day 38, HCC78 xenograft", "result": 6, "unit": "mm³"}, {"measurement": "Mean tumor volume of group (mice 25-30)", "setting": "[1]; day 43, HCC78 xenograft", "result": 9.1, "unit": "mm³"}, {"measurement": "Mean tumor volume of group (mice 25-30)", "setting": "[1]; day 48, HCC78 xenograft", "result": 4.2, "unit": "mm³"}, {"measurement": "Mean tumor volume of group (mice 25-30)", "setting": "[1]; day 52, HCC78 xenograft", "result": 3.6, "unit": "mm³"}, {"measurement": "Mean tumor volume of group (mice 25-30)", "setting": "[1]; day 55, HCC78 xenograft", "result": 4.9, "unit": "mm³"}, {"measurement": "Tumor growth inhibition", "setting": "[1]; 50 and 100 mg/kg once daily oral", "result": "significant growth inhibition"}, {"measurement": "Tumor volume LWW/2", "setting": "[1]; day 0, single mouse", "result": 189.6}, {"measurement": "Tumor volume LWW/2", "setting": "[1]; day 3, single mouse", "result": 88.9}, {"measurement": "Tumor volume LWW/2", "setting": "[1]; day 6, single mouse", "result": 53.5}, {"measurement": "Tumor volume LWW/2", "setting": "[1]; day 9, single mouse", "result": 31.7}, {"measurement": "Tumor volume LWW/2", "setting": "[1]; day 14, single mouse", "result": 11.8}, {"measurement": "Tumor volume LWW/2", "setting": "[1]; day 17, single mouse", "result": 20.3}, {"measurement": "inhibition at 0.04 µM", "setting": "PBK", "result": -2.5, "unit": "%"}, {"measurement": "inhibition at 0.04 µM", "setting": "HIPK2", "result": 3.5, "unit": "%"}, {"measurement": "inhibition at 0.04 µM", "setting": "SLK", "result": 41.7, "unit": "%"}, {"measurement": "IC50", "setting": "KM12 cells (TPM3-NTRK1)", "result": "0.003 to 0.02", "unit": "µM"}, {"measurement": "Mean trough plasma concentration", "setting": "[2]; 400 mg dosing", "result": "~ 320 ng/mL and ~800 nM"}, {"measurement": "Peak plasma concentration", "setting": "[2]; 600 mg dosing in human", "result": "around 1650 nM"}, {"measurement": "Mean trough plasma concentration", "setting": "[2]; 600 mg dosing", "result": "~480 ng/mL and ~1200 nM"}, {"measurement": "inhibition at 0.04 µM", "setting": "DYRK1A", "result": 6, "unit": "%"}, {"measurement": "inhibition at 0.2 µM", "setting": "NTRK3; 0.2μM, 1 mM ATP", "result": 95.8, "unit": "%"}, {"measurement": "IC50", "setting": "NTRK3; ATP: 1 mM", "result": 0.00928, "unit": "µM"}, {"measurement": "inhibition at 0.04 µM", "setting": "CLK3", "result": 5.7, "unit": "%"}, {"measurement": "inhibition at 0.04 µM", "setting": "WNK2", "result": -1.8, "unit": "%"}, {"measurement": "inhibition at 0.04 µM", "setting": "HIPK1", "result": 0.135, "unit": "%"}, {"measurement": "IC50", "setting": "[3]", "result": 0.216, "unit": "µM"}, {"measurement": "IC50", "setting": "[4]", "result": 0.938, "unit": "µM"}, {"measurement": "inhibition at 0.04 µM", "setting": "GSK3α", "result": -2.5, "unit": "%"}, {"measurement": "inhibition at 0.04 µM", "setting": "SYK", "result": 0.327, "unit": "%"}]}]}
